Results as given in US12134587B2, “Reaction products and methods for making and using the same” (KOCH AGRONOMIC SERVICES, LLC, priority 2010, dated 2024).

System: nitrification of ammonium to nitrate in Greenville loamy soil
Experiment: Soil incubation test of nitrogen transformations (ammonium-N and nitrate-N)
Method: Three reaction products (Ex. 1-3) mixed with a urea solution to produce a liquid fertilizer solution were prepared and incubation tests were conducted. A comparative example of a urea only solution, i.e., a urea solution without a reaction product (C1), and a comparative example of a urea solution mixed with dicyandiamide (DCD) (C2) were also prepared and evaluated. For comparative example C2, the urea solution mixed with DCD was not reacted. In other words, the DCD was mixed with the urea solution to provide the fertilizer. A Control was also prepared that consisted of soil, i.e., no nitrogen source nor reaction product was added.
Incubation tests were performed using each Example 1-3 to evaluate the nitrogen transformations for each sample. The effect of each reaction product (Ex. 1-3) on the nitrogen concentration in the soil as both ammonium-nitrogen and nitrate-nitrogen were evaluated at three different concentrations of the reaction products. More particularly, the concentration of DCD for a first set of samples was 0.75 wt. % (Table 1), a second set of samples was 1.5 wt. % (Table 2), and a third set of samples was 3 wt. % (Table 3), where the weight percents of the DCD concentration are based on the total weight of nitrogen in the urea solution.
The soil used in the incubation tests was Greenville loamy soil (clay-loam, siliceous, thermic Plinthic Kandiudults). […] The phosphorous and sulfur concentrations were determined according to the Bray-1 test. The zinc concentration was determined according to the DTPA (diethylenetriaminepentaacetic acid) soil test.
As used herein, the term “field capacity,” refers to the drained upper limit or moisture content below which there is no free drainage flow. During the one week incubation period the moisture was reduced to about 80%. For each test 50 g of soil was placed into a cup and each cup was covered with a lid having four holes to allow for aeration and to minimize water loss.
Stock solutions containing each example were prepared by adding 2.15 g of urea and the corresponding amount of DCD (C2) or the reaction product (Ex. 1-3) to a 500 mL beaker to provide samples having 0.75 wt. % (Table 1), 1.5 wt. % (Table 2), and 3 wt. % (Table 3) DCD based on the total nitrogen concentration in the urea solution. After adding the urea (C1), urea plus DCD (C2), and urea plus the reaction products (Ex. 1-3), to the beakers, the contents of each beaker were diluted to 500 mL with distilled water to provide a stock solution. For the examples shown in Tables 1-3 below, 5 mL of the corresponding stock solution were introduced via a pipette onto each 50 g soil sample and the cover was placed thereon. The amount of nitrogen contained in each example (Ex. 1-3, C1, and C2) was 10 mg and the nitrogen was in the form of urea. The soil had at least an 80% field moisture capacity for each sample and if needed additional distilled water was used in order to achieve the 80% field moisture capacity.
Soil extractions were made at 1 week intervals to determine the amount of ammonium-nitrogen and nitrate-nitrogen in each example. A total of 10 extractions were performed, namely at time=0 and after the 1st week, 2nd week, 3rd week, 4th week, 5th week, 6th week, 7th week, 8th week, and the […]. Extracting the nitrogen from each sample was done by adding 100 mL of a 2M potassium chloride (KCl) solution to each soil sample to be tested. The amount of nitrogen in the form of ammonium (NH4^+) and nitrate (NO3^−) were then determined.
The amount of ammonium was determined using the well-known Berthelot reaction in which ammonia is chlorinated to monochloroamine, which then reacts with salicylate to form 5-aminosalicylate. After oxidation and oxidative coupling, a green color complex was formed which was measured at 660 nm using a spectrophotometer.
The determination of nitrate was determined based on the reduction of nitrate (NO3) to […] (NO2) by hydrazinium sulfate or cadmium metal. […]

[1] = 0.75 wt. % DCD based on nitrogen in urea solution, Wk. 0
[2] = 1.5 wt. % DCD Based on the Weight of Nitrogen in the Fertilizer, Wk. 0
[3] = 3 wt. % DCD Based on the Weight of Nitrogen in the Fertilizer, Wk. 0

NC(N)=O [C1, urea]
0.10 mg N: Ammonium (NH4^+) (0.75 wt. % DCD, Wk. 8) | Ammonium (NH4^+) (1.5 wt. % DCD, Wk. 8) | Ammonium (NH4^+) (3 wt. % DCD, Wk. 8)
10.85 mg N: Nitrate (NO3^−) (0.75 wt. % DCD, Wk. 7) | Nitrate (NO3^−) (1.5 wt. % DCD, Wk. 7) | Nitrate (NO3^−) (3 wt. % DCD, Wk. 7)
10.97 mg N: Nitrate (NO3^−) (0.75 wt. % DCD, Wk. 8) | Nitrate (NO3^−) (1.5 wt. % DCD, Wk. 8) | Nitrate (NO3^−) (3 wt. % DCD, Wk. 8)
2.14 mg N: Ammonium (NH4^+) (0.75 wt. % DCD, Wk. 3) | Ammonium (NH4^+) (1.5 wt. % DCD, Wk. 3) | Ammonium (NH4^+) (3 wt. % DCD, Wk. 3)
0.39 mg N: Ammonium (NH4^+) [1] | Ammonium (NH4^+) [2] | Ammonium (NH4^+) [3]
1.27 mg N: Nitrate (NO3^−) [1] | Nitrate (NO3^−) [2] | Nitrate (NO3^−) [3]
3.61 mg N: Nitrate (NO3^−) (0.75 wt. % DCD, Wk. 1) | Nitrate (NO3^−) (1.5 wt. % DCD, Wk. 1) | Nitrate (NO3^−) (3 wt. % DCD, Wk. 1)
0.08 mg N: Ammonium (NH4^+) (0.75 wt. % DCD, Wk. 5) | Ammonium (NH4^+) (0.75 wt. % DCD, Wk. 6) | Ammonium (NH4^+) (1.5 wt. % DCD, Wk. 5) | Ammonium (NH4^+) (1.5 wt. % DCD, Wk. 6) | Ammonium (NH4^+) (3 wt. % DCD, Wk. 5) | Ammonium (NH4^+) (3 wt. % DCD, Wk. 6)
0.04 mg N: Ammonium (NH4^+) (0.75 wt. % DCD, Wk. 10) | Ammonium (NH4^+) (1.5 wt. % DCD, Wk. 10) | Ammonium (NH4^+) (3 wt. % DCD, Wk. 10)
0.09 mg N: Ammonium (NH4^+) (0.75 wt. % DCD, Wk. 7) | Ammonium (NH4^+) (1.5 wt. % DCD, Wk. 7) | Ammonium (NH4^+) (3 wt. % DCD, Wk. 7)
6.37 mg N: Nitrate (NO3^−) (0.75 wt. % DCD, Wk. 2) | Nitrate (NO3^−) (1.5 wt. % DCD, Wk. 2) | Nitrate (NO3^−) (3 wt. % DCD, Wk. 2)
4.21 mg N: Ammonium (NH4^+) (0.75 wt. % DCD, Wk. 2) | Ammonium (NH4^+) (1.5 wt. % DCD, Wk. 2) | Ammonium (NH4^+) (3 wt. % DCD, Wk. 2)
10.98 mg N: Nitrate (NO3^−) (0.75 wt. % DCD, Wk. 10) | Nitrate (NO3^−) (1.5 wt. % DCD, Wk. 10) | Nitrate (NO3^−) (3 wt. % DCD, Wk. 10)
6.81 mg N: Ammonium (NH4^+) (0.75 wt. % DCD, Wk. 1) | Ammonium (NH4^+) (1.5 wt. % DCD, Wk. 1) | Ammonium (NH4^+) (3 wt. % DCD, Wk. 1)
10.66 mg N: Nitrate (NO3^−) (0.75 wt. % DCD, Wk. 6) | Nitrate (NO3^−) (1.5 wt. % DCD, Wk. 6) | Nitrate (NO3^−) (3 wt. % DCD, Wk. 6)
10.45 mg N: Nitrate (NO3^−) (0.75 wt. % DCD, Wk. 4) | Nitrate (NO3^−) (1.5 wt. % DCD, Wk. 4) | Nitrate (NO3^−) (3 wt. % DCD, Wk. 4)
10.69 mg N: Nitrate (NO3^−) (0.75 wt. % DCD, Wk. 5) | Nitrate (NO3^−) (1.5 wt. % DCD, Wk. 5) | Nitrate (NO3^−) (3 wt. % DCD, Wk. 5)
0.18 mg N: Ammonium (NH4^+) (0.75 wt. % DCD, Wk. 4) | Ammonium (NH4^+) (1.5 wt. % DCD, Wk. 4) | Ammonium (NH4^+) (3 wt. % DCD, Wk. 4)
8.38 mg N: Nitrate (NO3^−) (0.75 wt. % DCD, Wk. 3) | Nitrate (NO3^−) (1.5 wt. % DCD, Wk. 3) | Nitrate (NO3^−) (3 wt. % DCD, Wk. 3)
